Results taken from patent US8486949B2, “Use of azaperone for improving growth performance” (Elanco Animal Health Ireland Limited, priority 2008, dated 2013).

Columns and labels:
weaned pigs [1] = assay: Behaviour of the animals per pen (groups 5 and 6: pigs lying down, eating or drinking, hierarchical fights); assay type: in vivo
Description: This study was a controlled parallel study with 4 sequential groups of approximately 250 weaned pigs each. The first and third group were treated with azaperone via the drinking water for 3 consecutive days. The second and fourth group were control groups treated with placebo (plain drinking water). After the completion of these four groups, two additional groups (one treated with azaperone and one control group) were included in the study to investigate more in detail the effect of the azaperone treatment on the behaviour of the pigs. In each of these additional groups, 5 pens of approximately 12 pigs were enclosed.
In order to assess the effect of the azaperone treatment on the behaviour of the animals after weaning, the occurrence of hierarchical fights was followed in groups 1 to 4 and recorded by the Principal Investigator during a period of 1 week after weaning. Every day a behaviour score of 0 to 2 was given to each pen:
In groups 1 to 4, behaviour of the pigs was always scored as normal although hierarchical fighting was reported on the farm. […] These two additional groups (one treated with azaperone and one control group) were closely monitored for behavioural changes. During the first 7 hours after weaning and movement to the nurseries, the occurrence and severity of hierarchical fights, the number of pigs laying down, and the number of pigs eating or drinking, was recorded. […]

weaned pigs [2] = assay: Preclinical study of the effects of azaperone administered via drinking water: body weight per pig; assay type: in vivo
Description: Preclinical Study of the Effects of Azaperone Administered Via Drinking Water The study was performed in weaned pigs to investigate the effect of azaperone that was continuously orally administered via drinking water on behaviour, feed conversion, growth and homogeneity of growth. Groups of approximately 250 pigs were enrolled in the study starting from the moment they were weaned. The pigs were housed according to everyday farming conditions in a conventional pig farm. All pigs were housed in similar buildings. Each group was housed in 2 compartments, gilts and barrows were housed in separate compartments. Pigs were kept in pens of approximately 12 individuals each. After weaning, the piglets were housed in continuous artificial light for the first 48 hours. Afterwards, pigs were housed in continuous darkness for the further duration of the study, except during observations (twice a day). During the course of the study, pigs were not vaccinated. A metaphylactic colistine treatment via drinking water was applied in each group starting from the fifth day after weaning. Treatment continued for seven days. Pigs were fed ad libitum. Troughs were filled automatically with a computerized system that records the supplied weight of feed per pen. During the first ten days of the nursery period, pigs were fed a pelleted weaner feed which had also been available to the piglets in the farrowing unit. Between the 10th and 15th day at the nursery, the weaner feed was gradually replaced by grower pellets which have been given until the 35th day. Finally a switch was made between the 35th and the 40th day from grower pellets to starter pellets. Tap water was available during the whole period of the study and was supplied via a water nipple in the feeding trough. The drinking water comprising azaperone was obtained by diluting Stresnil™ injection in water to obtain a concentration of 6 mg azaperone per liter drinking water. A primary dilution was prepared by diluting 90 ml of Stresnil™ 4% injectable solution with tap water to obtain 6 liters of preparation. This primary dilution was linked for 24 hours with an automatic dosing system which continuously diluted the preparation in the drinking water at a rate of 1 to 100. One preparation of the primary dilution was sufficient to treat 600 liters of drinking water which exceeded the anticipated daily consumed volume of water by the pigs in one compartment. The two following days, a new primary dilution was made fresh each morning and linked to the automatic dosing system for 24 hours. This study was a controlled parallel study with 4 sequential groups of approximately 250 weaned pigs each. The first and third group were treated with azaperone via the drinking water for 3 consecutive days. The second and fourth group were control groups treated with placebo (plain drinking water). After the completion of these four groups, two additional groups (one treated with azaperone and one control group) were included in the study to investigate more in detail the effect of the azaperone treatment on the behaviour of the pigs. In each of these additional groups, 5 pens of approximately 12 pigs were enclosed. On day one of the test period, water containing 6 mg azaperone per liter or placebo, was made available. Starting from the fourth day, the drinking water no longer contained azaperone. All pigs followed the normal procedures for further fattening. No pigs were brought to the slaughterhouse during the study (3 days dosing and 39 days follow-up). Body weights were determined for all pigs in groups 1 to 4. The body weight of each individual animal was determined a first time at the start of the study, just before movement to the nursery and a second time at the end of the study, after a period of 42 days in the nursery. […]

pigs = details: cited from earlier work

With O=C(CCCN1CCN(c2ccccn2)CC1)c1ccc(F)cc1 [azaperone] the “number of pigs lying down or eating versus placebo” value (weaned pigs [1]; groups 5 and 6, first 7 hours after initiation of treatment, 6 mg/liter drinking water) was “no difference”, the sedative effect (weaned pigs [1]; oral via drinking water, 6 mg/liter) was “absence of a sedative effect” and the “body weight gained during the study” value (weaned pigs [2]; 6 mg azaperone per liter drinking water for 3 days, 42 day test period, mean±SD) was 16.3 ± 3.31 kg. For the same compound, the “Final BW CoV (coefficient of variation)” value (weaned pigs [2]; after 42 days in the nursery) was 18%, the “Final BW” value (weaned pigs [2]; after 42 days in the nursery, 6 mg/liter drinking water for first 3 days) was 23.62 kg and the “body weight gain CoV (coefficient of variation)” value (weaned pigs [2]; over 42 days) was 20%. The body weight gain (weaned pigs [2]; over 42 days, 6 mg/liter drinking water for first 3 days) was 16.34 kg, the “homogeneity of body weight distribution at the end of the testing period” value (weaned pigs [2]; versus placebo groups) was “more homogenous body weight distribution” and the “effect on weight gain, feed consumption or feed efficiency” value (pigs; intramuscular administration to pigs, Gonyou et al., J. Anim. Sci. 1988) was “did not had significant effect”. For the same compound, the “effect in promoting relative growth rate” value (pigs; intramuscular injection to pigs, Blackshaw, Aust. Vet. J. 1981) was “no effect” and the weight gain (pigs; intramuscular injection to pigs, Porter and Slusser, Veterinary Medicine 1985) was “increased weight gain”.
